Reference: US20230210848A1, “CORONAVIRUS INFECTION THERAPEUTIC AGENT FORMED THROUGH COMBINATION OF PYRAZINE DERIVATIVE AND ANOTHER CORONAVIRUS INFECTION THERAPEUTIC DRUG” (priority 2020, published 2023)

System: HCoV-OC43
Assay: Test Example 2: CPE inhibition in HCoV-OC43 infected BHK-21 cells, single or combination use
Assay type: cell-based, Human coronavirus (HCoV-OC43)
[1] = Betacoronavirus 1, OC43, BHK-21, read-out: CPE inhibition rate

Row | Compound | CPE inhibition rate (single use of 1000 μM of T-705, BHK-21 cells) [%] | inhibition at 0.1 µM [1] [%] | inhibition at 0.3 µM [1] [%]
1 | NC(=O)c1nc(F)cnc1O [T-705, favipiravir] | 79 | – | –
2 | CCC(CC)COC(=O)[C@H](C)N[P@](=O)(OC[C@H]1O[C@@](C#N)(c2ccc3c(N)ncnn23)[C@H](O)[C@@H]1O)Oc1ccccc1 [remdesivir] | – | 51 | 80
